# Data reported in PubChem BioAssay AID2060489 (Molecular Pharmacology Branch, DTP, NCI, 2025).
# Tested on: 922993-354-T-J3-PDC complex spheroids, viability
# Experiment: Anticancer human tumor 922993-354-T-J3-PDC patient-derived endometrial carcinoma cell line growth inhibition [GQUAD]
# Settings: for IC50: curve of first compound; for viability, T/C: stronger effect = lower value
# Text: DNA G-quadruplex Stabilizer Agents in Combinations in Complex Spheroids
# A high-throughput screen of multi-cell type tumor spheroids was designed to identify active combinations of DNA G-quadruplex stabilizer agents and targeted small molecules. Complex spheroids include a stromal component modeled by human endothelial cells (HUVEC) and fibroblasts modeled by human mesenchymal stem cells (MSCs). The concentration ranges selected for each drug and investigational agent were based upon clinically achievable concentrations if the clinical Cmax of the agent was known.
# Compounds. The drugs and investigational agents: pidnarulex (CX-5461; NSC782164), APTO-253 (NSC789042), BRACO-19 (NSC847499), peposertib (NSC802822), ceralasertib (NSC780249), elimusertib (NSC800525), camonsertib (NSC841442), AZD-1390 (NSC803789), olaparib (NSC753686), talazoparib (NSC767125), ART-558 (NSC835418), sotorasib (NSC818433), MRTX-1133 (NSC836407), SN-38 (NSC673596), topotecan (NSC609699), etoposide (NSC141540), doxorubicin (NSC123127), gemcitabine (NSC613327), 5-fluorouracil (NSC19893), paclitaxel (NSC125973), vemurafenib (NSC761431), panobinostat (NSC761190), R-306465 (JNJ-16241199; NSC773264), adavosertib (NSC754352), TP-3654 (NSC805149), carboplatin (NSC241240), KSQ-4279 (NSC840948), and staurosporine (NSC755774) were obtained from the National Cancer Institute (NCI) Developmental Therapeutics Program Chemical Repository (34). The FDA-approved anticancer drug set is available from the NCI Developmental Therapeutics Program. […] The stock solutions were prepared in dimethyl sulfoxide (DMSO, Sigma-Aldrich, St. Louis, MO, cat. D2650) at 800-fold the tested concentration and stored at -70 degrees C prior to their use. All drugs and investigational agents were tested over a range starting from a high concentration at or near the clinical Cmax and decreasing in half-log increments. If the clinical Cmax for an agent had not been determined, the highest concentration tested was 10 microM.
# 2.3 Cell Culture. All cells were maintained in an incubator at 37 degrees C and 5% CO2 with 95% humidity. The PDC lines were cultured according to standard operating procedures established by the NCI PDMR. All PDCs were thawed and cultured in Matrigel-coated flasks prepared with a working solution of 1X Ham's F-12 nutrient mix, without supplementation (Invitrogen, cat. 11765054), 100 U/mL penicillin-streptomycin (Invitrogen, cat. 15140122), and 2.5% Matrigel (Corning Inc., cat. 354248) for the first three passages. The 857933-349-R-J2-PDC line was cultured in 6C/Colon 1B media, which includes advanced DMEM/F-12 (Thermo Fisher Scientific, cat. 12634028), 10 mM HEPES (Thermo Fisher Scientific, cat. 15630080), 1X GlutaMAX supplement (Thermo Fisher Scientific, cat. 35050061), 0.1 mg/mL primocin (InvivoGen, cat. ant-pm-2), 10% defined fetal bovine serum, heat inactivated (HyClone Laboratories Inc., cat. SH30070.03HI), 50% L-WRN conditioned media (ATCC, cat. CRL-3276), 1.25 mM N-Acetyl-L-cysteine (Sigma-Aldrich, cat. A9165), 10 mM nicotinamide (Sigma-Aldrich, cat. N0636), 1X B-27 supplement (Thermo Fisher Scientific, cat. 17504044), 1X N-2 supplement (Thermo Fisher Scientific, cat. 17502048), 10 microM Y-27632 dihydrochloride (Tocris Bioscience, cat. 1254), and 50 ng/mL human EGF recombinant protein (Thermo Fisher Scientific, cat. PHG0311). The 485176-168-R4-J1-PDC line was cultured in Panc media, which includes all 6C/Colon 1B media components plus 100 ng/mL human FGF-10 (Thermo Fisher Scientific, cat. 100-26), 500 nM SB-431542 (Selleckchem, cat. S1067), and gastrin (Tocris, cat. 3006).
# […]
# 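Also: spheroids exposed to compounds for seven days.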
# 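For viability, T/C in this document: 100% = DMSO vehicle control viability.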
smiles,measurement,setting,value
CC[C@@]1(O)C(=O)OCc2c1cc1n(c2=O)Cc2cc3c(CN(C)C)c(O)ccc3nc2-1 + Cc1cnc(CNC(=O)c2c(=O)c3ccc(N4CCCN(C)CC4)nc3n3c2sc2ccccc23)cn1,IC50,second compound 0.0316 µM,> 316 nM
same,IC50,second compound 0.1 µM,125 nM
same,IC50,second compound 0.316 µM,3.91 nM
same,IC50,second compound 1 µM,81.8 nM
same,IC50,second compound 3.16 µM,53 nM
same,IC50,second compound 10 µM,< 0.999 nM
same,"viability, T/C","second compound 0.0316 µM, first compound 0.000999 µM",94.7%
same,"viability, T/C","second compound 0.0316 µM, first compound 0.00316 µM",86.6%
same,"viability, T/C","second compound 0.0316 µM, first compound 0.00999 µM",84%
same,"viability, T/C","second compound 0.0316 µM, first compound 0.0316 µM",86.9%
same,"viability, T/C","second compound 0.0316 µM, first compound 0.0999 µM",83.2%
same,"viability, T/C","second compound 0.0316 µM, first compound 0.316 µM",54.6%
same,"viability, T/C","second compound 0.1 µM, first compound 0.000999 µM",60.6%
same,"viability, T/C","second compound 0.1 µM, first compound 0.00316 µM",74.2%
same,"viability, T/C","second compound 0.1 µM, first compound 0.00999 µM",55.1%
same,"viability, T/C","second compound 0.1 µM, first compound 0.0316 µM",61%
same,"viability, T/C","second compound 0.1 µM, first compound 0.0999 µM",50.4%
same,"viability, T/C","second compound 0.1 µM, first compound 0.316 µM",42.7%
same,"viability, T/C","second compound 0.316 µM, first compound 0.000999 µM",58.6%
same,"viability, T/C","second compound 0.316 µM, first compound 0.00316 µM",53.5%
same,"viability, T/C","second compound 0.316 µM, first compound 0.00999 µM",46.7%
same,"viability, T/C","second compound 0.316 µM, first compound 0.0316 µM",37.5%
same,"viability, T/C","second compound 0.316 µM, first compound 0.0999 µM",41.1%
same,"viability, T/C","second compound 0.316 µM, first compound 0.316 µM",40.3%
same,"viability, T/C","second compound 1 µM, first compound 0.000999 µM",42.2%
same,"viability, T/C","second compound 1 µM, first compound 0.00316 µM",58.5%
same,"viability, T/C","second compound 1 µM, first compound 0.00999 µM",39.6%
same,"viability, T/C","second compound 1 µM, first compound 0.0316 µM",62.3%
same,"viability, T/C","second compound 1 µM, first compound 0.0999 µM",49.1%
same,"viability, T/C","second compound 1 µM, first compound 0.316 µM",36.2%
same,"viability, T/C","second compound 3.16 µM, first compound 0.000999 µM",52.1%
same,"viability, T/C","second compound 3.16 µM, first compound 0.00316 µM",54.9%
same,"viability, T/C","second compound 3.16 µM, first compound 0.00999 µM",63.4%
same,"viability, T/C","second compound 3.16 µM, first compound 0.0316 µM",42.5%
same,"viability, T/C","second compound 3.16 µM, first compound 0.0999 µM",49.2%
same,"viability, T/C","second compound 3.16 µM, first compound 0.316 µM",45.3%
same,"viability, T/C","second compound 10 µM, first compound 0.000999 µM",45.5%
same,"viability, T/C","second compound 10 µM, first compound 0.00316 µM",36.3%
same,"viability, T/C","second compound 10 µM, first compound 0.00999 µM",43.3%
same,"viability, T/C","second compound 10 µM, first compound 0.0316 µM",44.1%
same,"viability, T/C","second compound 10 µM, first compound 0.0999 µM",46.2%
same,"viability, T/C","second compound 10 µM, first compound 0.316 µM",47.5%
